Laboratory results reported in US20260132132A1, “3A,4,5,6-TETRAHYDRO-1 H-PYRAZOLO[3,4-C]PYRIDIN-7(7AH)-ONE DERIVATIVES AS FACTOR XIIA INHIBITORS” (KALVISTA PHARMACEUTICALS LIMITED, priority 2022, published 2026).

Target: T1, Human Factor XIIa (hFXIIa) (Homo sapiens, UniProt P00748)
T1 construct: purchased Enzyme Research Laboratories
T1 sequence (P00748 373-615 limits assumed): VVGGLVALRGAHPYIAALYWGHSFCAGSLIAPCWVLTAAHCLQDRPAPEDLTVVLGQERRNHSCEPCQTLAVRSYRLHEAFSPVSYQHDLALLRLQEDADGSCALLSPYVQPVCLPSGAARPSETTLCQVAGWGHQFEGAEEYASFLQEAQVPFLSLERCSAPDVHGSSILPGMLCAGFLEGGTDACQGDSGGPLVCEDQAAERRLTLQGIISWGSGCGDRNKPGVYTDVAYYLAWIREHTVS
T1 sequence (P00748 20-372 partner limits assumed): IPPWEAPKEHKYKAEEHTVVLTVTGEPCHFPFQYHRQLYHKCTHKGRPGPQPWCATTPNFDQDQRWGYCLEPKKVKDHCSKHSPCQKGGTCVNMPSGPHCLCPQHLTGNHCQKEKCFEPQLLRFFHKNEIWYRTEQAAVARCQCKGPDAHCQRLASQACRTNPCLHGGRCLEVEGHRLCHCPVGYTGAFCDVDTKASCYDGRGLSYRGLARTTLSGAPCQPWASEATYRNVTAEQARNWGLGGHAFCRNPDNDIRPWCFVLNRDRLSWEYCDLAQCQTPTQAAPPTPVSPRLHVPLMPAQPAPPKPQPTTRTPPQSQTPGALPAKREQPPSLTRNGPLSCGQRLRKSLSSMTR
Experiment: Determination of Human Factor XIIa (hFXIIa) inhibition, fluorogenic substrate IC50 assay
Type: biochemical
Conditions: fluorogenic substrate H-DPro-Phe-Arg-AFC at Km, 25° C., read-out: Human FXIIa IC50
Description: Determination of Human Factor XIIa (hFXIIa) inhibition
The Km for the cleavage of the substrate by hFXIIa was determined by standard transformation of the Michaelis-Menten equation, with subsequent inhibition assays performed at substrate Km concentration.

First: CN1CCc2ccc(N3CCc4c(C(=O)NCC(O)C5CC5)nn(-c5cccc(Cl)c5)c4C3=O)cc2C1 (stereo not shown) [Example 1058, 1-(3-chlorophenyl)-N-(2-cyclopropyl-2-hydroxyethyl)-6-(2-methyl-1,2,3,4-tetrahydroisoquinolin-7-yl)-7-oxo-4,5,6,7-tetrahydro-1H-pyrazolo[3,4-c]pyridine-3-carboxamide]
Second: C[C@H](O)CN1CCc2ccc(N3CCc4c(C(=O)NCC5CC5)nn(-c5cccc(Cl)c5)c4C3=O)cc2C1 [Example 1070, (S)-1-(3-chlorophenyl)-N-(cyclopropylmethyl)-6-(2-(2-hydroxypropyl)-1,2,3,4-tetrahydroisoquinolin-7-yl)-7-oxo-4,5,6,7-tetrahydro-1H-pyrazolo[3,4-c]pyridine-3-carboxamide]
The IC50 of the first is higher: 300 to 1000 nM for the first, 100 to 300 nM for the second.

CCC(C)N1CCc2ccc(N3CCc4c(C(=O)NCC5CC5)nn(-c5cccc(Cl)c5)c4C3=O)cc2C1 (stereo not shown) [Example 1059, 6-(2-(sec-butyl)-1,2,3,4-tetrahydroisoquinolin-7-yl)-1-(3-chlorophenyl)-N-(cyclopropylmethyl)-7-oxo-4,5,6,7-tetrahydro-1H-pyrazolo[3,4-c]pyridine-3-carboxamide] and COCC(C)N1CCc2ccc(N3CCc4c(C(=O)NCC5CC5)nn(-c5cccc(Cl)c5)c4C3=O)cc2C1 (stereo not shown) [Example 1060, 1-(3-chlorophenyl)-N-(cyclopropylmethyl)-6-(2-(1-methoxypropan-2-yl)-1,2,3,4-tetrahydroisoquinolin-7-yl)-7-oxo-4,5,6,7-tetrahydro-1H-pyrazolo[3,4-c]pyridine-3-carboxamide] fall in the same range of IC50: 100 to 300 nM for the first, 100 to 300 nM for the second.

CCOCCN1CCc2ccc(N3CCc4c(C(=O)NCC5CC5)nn(-c5cccc(Cl)c5)c4C3=O)cc2C1 [Example 1061, 1-(3-chlorophenyl)-N-(cyclopropylmethyl)-6-(2-(2-ethoxyethyl)-1,2,3,4-tetrahydroisoquinolin-7-yl)-7-oxo-4,5,6,7-tetrahydro-1H-pyrazolo[3,4-c]pyridine-3-carboxamide] and O=C(NCC1CC1)c1nn(-c2cccc(Cl)c2)c2c1CCN(c1ccc3c(c1)CN(CCCF)CC3)C2=O [Example 1080, 1-(3-chlorophenyl)-N-(cyclopropylmethyl)-6-(2-(3-fluoropropyl)-1,2,3,4-tetrahydroisoquinolin-7-yl)-7-oxo-4,5,6,7-tetrahydro-1H-pyrazolo[3,4-c]pyridine-3-carboxamide] fall in the same range of IC50: 100 to 300 nM for the first, 100 to 300 nM for the second.

CN1CCc2ccc(N3CCc4c(C(=O)N[C@@H](CO)c5ccccc5)nn(-c5cccc(Cl)c5)c4C3=O)cc2C1 [Example 1063, (R)-1-(3-chlorophenyl)-N-(2-hydroxy-1-phenylethyl)-6-(2-methyl-1,2,3,4-tetrahydroisoquinolin-7-yl)-7-oxo-4,5,6,7-tetrahydro-1H-pyrazolo[3,4-c]pyridine-3-carboxamide] and CN1CCc2ccc(N3CCc4c(C(=O)NCc5ccoc5)nn(-c5cccc(Cl)c5)c4C3=O)cc2C1 [Example 1068, 1-(3-chlorophenyl)-N-(furan-3-ylmethyl)-6-(2-methyl-1,2,3,4-tetrahydroisoquinolin-7-yl)-7-oxo-4,5,6,7-tetrahydro-1H-pyrazolo[3,4-c]pyridine-3-carboxamide] fall in the same range of IC50: 100 to 300 nM for the first, 100 to 300 nM for the second.

First: CN1CCc2ccc(N3CCc4c(C(=O)NC5(C)CCOCC5)nn(-c5cccc(Cl)c5)c4C3=O)cc2C1 [Example 1064, 1-(3-chlorophenyl)-6-(2-methyl-1,2,3,4-tetrahydroisoquinolin-7-yl)-N-(4-methyltetrahydro-2H-pyran-4-yl)-7-oxo-4,5,6,7-tetrahydro-1H-pyrazolo[3,4-c]pyridine-3-carboxamide]
Second: CN1CCc2ccc(N3CCc4c(C(=O)N5CCOCC5)nn(-c5cccc(Cl)c5)c4C3=O)cc2C1 [Example 1067, 1-(3-chlorophenyl)-6-(2-methyl-1,2,3,4-tetrahydroisoquinolin-7-yl)-3-(morpholine-4-carbonyl)-1,4,5,6-tetrahydro-7H-pyrazolo[3,4-c]pyridin-7-one]
The IC50 of the first is lower: 300 to 1000 nM for the first, 1000 to 3000 nM for the second. The first is the more potent here.

First: Cc1cc(CNC(=O)c2nn(-c3cccc(Cl)c3)c3c2CCN(c2ccc4c(c2)CN(C)CC4)C3=O)[nH]n1 [Example 1065, 1-(3-chlorophenyl)-6-(2-methyl-1,2,3,4-tetrahydroisoquinolin-7-yl)-N-((3-methyl-1H-pyrazol-5-yl)methyl)-7-oxo-4,5,6,7-tetrahydro-1H-pyrazolo[3,4-c]pyridine-3-carboxamide]
Second: COCc1nn(-c2cccc(Cl)c2)c2c1CCN(c1ccc3c(c1)CN(C)CC3)C2=O [Example 1066, 1-(3-Chlorophenyl)-3-(methoxymethyl)-6-(2-methyl-1,2,3,4-tetrahydroisoquinolin-7-yl)-1,4,5,6-tetrahydro-7H-pyrazolo[3,4-c]pyridin-7-one]
The IC50 of the first is lower: 10 to 100 nM for the first, 1000 to 3000 nM for the second. The first is the more potent here.

COCc1nn(-c2cccc(Cl)c2)c2c1CCN(c1ccc3c(c1)CN(CCO)CC3)C2=O [Example 1069, 1-(3-chlorophenyl)-6-(2-(2-hydroxyethyl)-1,2,3,4-tetrahydroisoquinolin-7-yl)-3-(methoxymethyl)-1,4,5,6-tetrahydro-7H-pyrazolo[3,4-c]pyridin-7-one] and CC(=O)NCCN1CCc2ccc(N3CCc4c(C(=O)NCC5CC5)nn(-c5cccc(Cl)c5)c4C3=O)cc2C1 [Example 1081, 6-(2-(2-acetamidoethyl)-1,2,3,4-tetrahydroisoquinolin-7-yl)-1-(3-chlorophenyl)-N-(cyclopropylmethyl)-7-oxo-4,5,6,7-tetrahydro-1H-pyrazolo[3,4-c]pyridine-3-carboxamide] fall in the same range of IC50: 300 to 1000 nM for the first, 300 to 1000 nM for the second.

Compared with O=C(NCC1CC1)c1nn(-c2cccc(Cl)c2)c2c1CCN(c1ccc3c(c1)CN(CC(F)(F)F)CC3)C2=O [Example 1071, 1-(3-chlorophenyl)-N-(cyclopropylmethyl)-7-oxo-6-(2-(2,2,2-trifluoroethyl)-1,2,3,4-tetrahydroisoquinolin-7-yl)-4,5,6,7-tetrahydro-1H-pyrazolo[3,4-c]pyridine-3-carboxamide], CCN1Cc2cc(N3CCc4c(C(=O)NCC5CC5)nn(-c5cccc(Cl)c5)c4C3=O)ccc2C(C)(C)C1 [Example 1082, 1-(3-chlorophenyl)-N-(cyclopropylmethyl)-6-(2-ethyl-4,4-dimethyl-1,2,3,4-tetrahydroisoquinolin-7-yl)-7-oxo-4,5,6,7-tetrahydro-1H-pyrazolo[3,4-c]pyridine-3-carboxamide] is lower in IC50: 1000 to 3000 nM for the first, 300 to 1000 nM for the second.

O=C(NCC1CC1)c1nn(-c2cccc(Cl)c2)c2c1CCN(c1cccc(CN3CCCC3)c1)C2=O [Example 1072, 1-(3-Chlorophenyl)-N-(cyclopropylmethyl)-7-oxo-6-(3-(pyrrolidin-1-ylmethyl)phenyl)-4,5,6,7-tetrahydro-1H-pyrazolo[3,4-c]pyridine-3-carboxamide] and O=C(NCC1CC1)c1nn(-c2cccc(Cl)c2)c2c1CCN(c1cccc(CN3CC4CC4C3)c1)C2=O (stereo not shown) [Example 1073, 6-(3-((3-azabicyclo[3.1.0]hexan-3-yl)methyl)phenyl)-1-(3-chlorophenyl)-N-(cyclopropylmethyl)-7-oxo-4,5,6,7-tetrahydro-1H-pyrazolo[3,4-c]pyridine-3-carboxamide] fall in the same range of IC50: 1000 to 3000 nM for the first, 1000 to 3000 nM for the second.

CN1CCc2ccc(N3CCc4c(C(=O)NC5CC6CCC5O6)nn(-c5cccc(Cl)c5)c4C3=O)cc2C1 (stereo not shown) [Example 1075, N-(7-oxabicyclo[2.2.1]heptan-2-yl)-1-(3-chlorophenyl)-6-(2-methyl-1,2,3,4-tetrahydroisoquinolin-7-yl)-7-oxo-4,5,6,7-tetrahydro-1H-pyrazolo[3,4-c]pyridine-3-carboxamide] was tested, and the IC50 was 100 to 300 nM.
